Test results as given in PubChem BioAssay (NCI).
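48-hour exposure; five concentrations; linearly interpolated endpoints. TGI: concentration producing complete growth inhibition.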

What was measured:
Test in all cases: NCI-60 cell line screen, 48 h
[1] = test system: A498 renal
[2] = test system: HOP-92 NSCLC
[3] = test system: IGROV1 ovarian
[4] = test system: KM12 colon
[5] = test system: MDA-N
[6] = test system: MOLT-4 leukemia
[7] = test system: OVCAR-8 ovarian
[8] = test system: RXF 393 renal
[9] = test system: SK-OV-3 ovarian
[10] = test system: SNB-75 CNS
[11] = test system: SR leukemia
[12] = test system: UACC-62 melanoma
[13] = test system: MALME-3M melanoma

| SMILES | TGI [1] | TGI [2] | TGI [3] | TGI [4] | TGI [5] | TGI [6] | TGI [7] | TGI [8] | TGI [9] | TGI [10] | TGI [11] | TGI [12] | TGI [13] |
| --- | --- | --- | --- | --- | --- | --- | --- | --- | --- | --- | --- | --- | --- |
| Cc1cn(CCCCC2=NCCCN2)c(=O)[nH]c1=O | > 49.4 µM | 18.3 µM | > 33.8 µM | > 48.9 µM | > 100 µM | > 37.1 µM | > 28.2 µM | > 32.6 µM | > 40.7 µM | > 28.6 µM | > 41 µM | > 59.1 µM |  |
| C[N+]12C=CC=C1C(N1CCCC1)c1scc(-c3ccccc3)c12 (configuration not stated) | > 100 µM |  | 31.6 µM | 31.3 µM | 84.3 µM | 64.6 µM | > 100 µM | 90.1 µM | > 100 µM | 47.8 µM | 37.4 µM | > 100 µM | 49.8 µM |
| CCOC(=O)C1(C(=O)OCC)[C@@H](c2ccccc2)C2=NO[C@@H]3CCC[C@H]1[C@H]23 |  | > 100 µM | > 100 µM | > 100 µM | 64.6 µM | > 100 µM | > 100 µM | > 100 µM | > 100 µM | > 100 µM | > 100 µM | > 100 µM | > 100 µM |
| CC1(c2nc3ccccc3[nH]2)CCC(C(=O)O)C(C)(C)O1 (configuration not stated) |  | > 100 µM | > 100 µM | > 100 µM | > 100 µM | > 100 µM | > 100 µM | > 100 µM | > 100 µM | > 100 µM | > 100 µM | > 100 µM | > 100 µM |
| CC1=NN(c2nc(N)nc(/C(C#N)=C\c3csc([N+](=O)[O-])c3)n2)C(C)(C)C1 | > 100 µM | > 100 µM | > 100 µM | > 100 µM | 98.9 µM | > 100 µM | 64.7 µM | 44.7 µM | > 100 µM |  | > 100 µM |  |  |
| NC1CC(=O)c2c1sc(Cl)c2Cl (configuration not stated) | > 100 µM |  | > 100 µM | > 100 µM | > 100 µM | > 100 µM | > 100 µM | > 100 µM | > 100 µM | > 100 µM | > 100 µM | > 100 µM | > 100 µM |
| O=c1[nH]nc(Cc2ccccc2)n1C1CCCC1 | > 100 µM |  | > 100 µM | > 100 µM | > 100 µM | > 100 µM | > 100 µM | > 100 µM | > 100 µM | > 100 µM | > 100 µM | > 100 µM | > 100 µM |
| CCOC(=O)c1nc2cc(C(F)(F)F)ccc2nc1Nc1ccc(OC)cc1 | > 100 µM | > 100 µM | > 100 µM | > 100 µM | > 100 µM | > 100 µM | > 100 µM | > 100 µM |  | > 100 µM | > 100 µM | > 100 µM |  |
| COc1ccc(N2C(=O)/C(=C\c3cc(OC)c(OC)c(OC)c3)SC2c2ccccc2)cc1 (configuration not stated) | > 100 µM | > 100 µM |  | > 100 µM | > 100 µM | > 100 µM | > 100 µM | > 100 µM | > 100 µM |  | > 100 µM | > 100 µM | > 100 µM |
| NNC(=O)c1c(-c2cccnc2)cnc2ccccc12 |  | > 100 µM | > 100 µM | > 100 µM | > 100 µM | > 100 µM | > 100 µM | > 100 µM | > 100 µM | > 100 µM | > 100 µM | > 100 µM | > 100 µM |
| N#Cc1nc(-c2ccco2)oc1N |  | > 10 µM | > 10 µM | > 10 µM | > 10 µM | > 10 µM | > 10 µM | > 10 µM | > 10 µM | > 10 µM | > 10 µM | > 10 µM | > 10 µM |
| CCOC(=O)c1sc2nc(SC)nc3c2c1NCN3c1ccc2c(c1)OCO2 | 87.4 µM | 32.4 µM | > 100 µM | > 100 µM | > 100 µM | 78.8 µM | 20.1 µM | 10.3 µM | 24.2 µM |  | > 100 µM | 31.8 µM | 53.2 µM |
| CCCCCCCC1(N=[N+]=[N-])C(=O)Nc2ccccc2C1=O (configuration not stated) | 14 µM | 27.2 µM | 25.6 µM | 57.7 µM | 37.8 µM | 35.2 µM |  | 25.1 µM | 30.4 µM | 27.1 µM | 90 µM | 23.8 µM | 33.4 µM |
| CCOC(=O)CNC(=O)C(CSC(=O)N(O)c1ccc(Cl)cc1)NC(=O)CCC(N)C(=O)OCC (configuration not stated) |  | > 50 µM | > 50 µM | > 50 µM | > 50 µM | > 50 µM | > 50 µM | > 50 µM | > 50 µM |  | > 50 µM | > 50 µM |  |
